The record followed here is US6395747B1, “Remedies for multiple sclerosis” (Kyorin Pharmaceutical Co., Ltd., priority 2001, dated 2002).

Assay [1] relates to EAE model. Kind of assay: Clinical disease ameliorating effect in rat EAE (multiple sclerosis) model. The class given is in vivo, DA strain rats. The note with it: DA rats.
The subject of assay [2] is EAE model. Briefly: Histological evaluation of spinal cord inflammation in rat EAE model. The format is in vivo, DA strain rats. The following applies: 10 mg/kg once a day through a feeding tube, 12 days after immunization.
Where [3] appears, read: 10 mg/kg once a day through a feeding tube.

Turning to `CC(C)C(=O)c1c(C(C)C)nn2ccccc12` [ibudilast], the results for the “clinical disease condition (clinical score) versus control group” value in the assay on EAE model [1] (2 mg/kg once a day through a feeding tube) and in the assay with EAE model [1] (setting [3]) were “tendency of amelioration” and “significant amelioration”, respectively. The body weight decrease result with EAE model [1] (setting [3]) is given as “suppressed significantly”. The disease onset entry in the assay on EAE model [1] (ibudilast-treated group, oral once a day) is listed as “delayed”. In addition, in the assay with EAE model [2], the “histological effect in comparison with the control” value is recorded as “significant effect histologically”. Also, the “average histological score (inflammation, lumbar spinal cord, hematoxylin-eosin)” value in the assay on EAE model [2] (score scale 0-4) is listed as “about 2.0”.
